Source: ChEMBL document CHEMBL6078628, “A perspective on the development of small molecular neprilysin inhibitors (NEPi) with emphasis on cardiorenal disease” (Eur J Med Chem, 2024)
pIC50, pKi: −log10 of the molar value.

Assays:
Neprilysin [1] = molecular target: T1, Neprilysin (Homo sapiens, UniProt P08473); test: Inhibition of NEP (unknown origin)
Neprilysin [2] = molecular target: T1, Neprilysin; test: Binding affinity to NEP (unknown origin) assessed as inhibition constant
[3] = molecular target: T2, Type-2 angiotensin II receptor (Homo sapiens, UniProt P50052); test: Inhibition of Angiotensin-2 receptor (unknown origin)
T2 sequence (P50052 whole entry): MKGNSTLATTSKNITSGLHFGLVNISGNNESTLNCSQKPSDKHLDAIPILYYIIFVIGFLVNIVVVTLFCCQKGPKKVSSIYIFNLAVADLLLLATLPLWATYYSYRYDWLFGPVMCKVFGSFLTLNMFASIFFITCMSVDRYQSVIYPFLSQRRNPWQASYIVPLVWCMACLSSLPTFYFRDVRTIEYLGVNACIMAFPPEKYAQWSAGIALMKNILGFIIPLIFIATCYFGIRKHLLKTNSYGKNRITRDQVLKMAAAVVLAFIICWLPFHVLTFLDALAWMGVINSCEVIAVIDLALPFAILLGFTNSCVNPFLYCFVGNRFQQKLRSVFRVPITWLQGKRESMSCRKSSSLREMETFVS

T1 sequence (P08473 whole entry): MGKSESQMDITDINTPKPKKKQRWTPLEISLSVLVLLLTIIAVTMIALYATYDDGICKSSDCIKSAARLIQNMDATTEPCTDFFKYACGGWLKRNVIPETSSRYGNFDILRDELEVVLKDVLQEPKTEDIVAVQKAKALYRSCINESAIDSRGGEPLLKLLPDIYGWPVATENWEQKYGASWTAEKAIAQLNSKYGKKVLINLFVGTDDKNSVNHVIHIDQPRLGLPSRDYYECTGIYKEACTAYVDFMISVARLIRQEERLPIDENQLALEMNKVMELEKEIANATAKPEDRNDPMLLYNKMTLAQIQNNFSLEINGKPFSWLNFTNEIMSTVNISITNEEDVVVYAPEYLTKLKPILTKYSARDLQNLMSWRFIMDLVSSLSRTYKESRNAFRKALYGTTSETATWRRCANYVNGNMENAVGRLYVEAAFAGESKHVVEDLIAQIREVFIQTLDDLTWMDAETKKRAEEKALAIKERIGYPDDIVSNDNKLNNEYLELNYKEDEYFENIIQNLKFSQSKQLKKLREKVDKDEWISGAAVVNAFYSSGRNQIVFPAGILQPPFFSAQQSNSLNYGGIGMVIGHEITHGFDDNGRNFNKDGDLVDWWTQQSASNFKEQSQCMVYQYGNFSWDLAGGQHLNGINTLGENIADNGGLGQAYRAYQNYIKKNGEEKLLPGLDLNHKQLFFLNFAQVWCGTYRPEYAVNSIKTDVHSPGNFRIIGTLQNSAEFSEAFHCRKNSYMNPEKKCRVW

| pIC50 (Neprilysin [1]) | pKi (Neprilysin [2]) | Structure (SMILES) | pIC50 [3] |
| --- | --- | --- | --- |
| 7.40 |  | SC[C@@H](Cc1ccccc1)c1nc2cnccc2[nH]1 |  |
| 5.77 |  | COC(c1ccccc1)c1cnc(C(CS)Cc2ccccc2)[nH]1 (stereo not drawn) |  |
| 7.52 |  | SC[C@@H](Cc1ccc(-c2ccccc2)cc1)c1nc2cnccc2[nH]1 |  |
|  | 8.21 | COCCOC[C@H](CC1(C(=O)N[C@H]2CC[C@@H](C(=O)O)CC2)CCCC1)C(=O)O [CANDOXATRILAT] |  |
|  | 9.19 | COc1cc(/C=C2\CCC/C(=C\c3ccc(O)c(OC)c3)C2=O)ccc1O [CYCLOVALONE] |  |
| 8.30 | 9.35 | O=C(N[C@H]1CCS[C@H]2CCC[C@@H](C(=O)O)N2C1=O)[C@@H](S)Cc1ccccc1 [OMAPATRILAT] |  |
|  |  | N[C@@H](Cc1ccc(Oc2cc(I)c(O)c(I)c2)c(I)c1)C(=O)O [REVERSE TRIIODOTHYRONINE] | 4.53 |
